In patent US12421229B2, “Hydropyrido[1,2-α]pyrazine compounds for the treatment of autoimmune disease” (Hoffmann-La Roche Inc., priority 2019, dated 2025):

Assays:
CYP2C9 = target: T1, CYP2C9 (Homo sapiens, UniProt P11712); experiment: CYP inhibition assay in human liver microsome, CYP2C9; type: in vitro ADME; settings: percentage inhibition, substrate Diclofenac 5 μM
T1 construct: tissue BD-Gentest 452117; host or cells: human liver microsomes
Method: This is a high throughput screening assay used for assessment of reversible inhibition of CYP2C9, CYP2D6, and CYP3A4 activity of test compounds in human liver microsome (HLM) in early discovery stage.
10 mM DMSO stock solutions of test compounds were diluted in DMSO to generate 2 mM intermediate stock solution. 250 nL of intermediate stock solution were transferred in duplicate into 3 separate 384 well microtitre plates (assay-ready plates). A mixture of HLM and each substrate was made up. 45 μL of HLM substrate mix was then transferred to each well of an assay ready plate and mixed. The negative (solvent) and positive controls (standard inhibitor for each CYP) were included in each assay ready plate. The assay ready plate was warmed to 37° C. in an incubator over 10 minutes. 5 μL pre-warmed NADPH regenerating system was added to each incubation well to start the reaction. Final incubation volume was 50 μL. The assay plate then was placed back in the 37° C. incubator. After incubation (10 minutes for CYP2D6) for 5 minutes, incubates were quenched by addition of 50 μL 100% acetonitrile containing internal standards (400 ng/mL 13C6-4′-OH-Diclofenac, 20 ng/mL D3-Dextrorphan and 20 ng/mL D4-1′OH-Midazolam). The supernatants were collected for RapidFire/MS/MS analysis.
RapidFire online solid phase extraction/sample injection system (Agilent) coupled with API4000 triple quadrupole mass spectrometer (AB Sciex) were used for sample analysis. The mobile phase composed of acetonitrile and water supplemented with 0.1% formic acid. A C4 solid phase extraction cartridge is used for sample separation. MS detection is achieved in positive ion MRM mode.
Peak areas for substrate, metabolite and internal standard are determined using the RapidFire integrator software (version 3.6.12009.12296). Peak area ratios (PAR) of metabolite and internal standard (stable-labelled metabolite) are then calculated. The measurement window for each experiment is then defined:
PAR (0% activity)=average PAR for all incubations containing concentrated inhibitor;
Par (100% activity)=average PAR for all incubations containing no inhibitor (DMSO controls);
% Activity (test inhibitor)=[PAR(test inhibitor)−PAR(0% activity)/PAR(100% activity)−PAR(0% activity)];
% Inhibition (test inhibitor)=100−% Activity (test inhibitor).

hERG K+ channel = target: T2, hERG K+ channel (Homo sapiens, UniProt Q12809); experiment: hERG channel inhibition assay (patch-clamp, CHOhERG cells); type: cell-based; settings: for IC50 / IC20: CHOhERG cells, whole-cell patch-clamp; for IC20: human, CHO cells stably expressing hERG (CHOhERG); for hERG IC20/TLR7 IC50 / hERG IC20/TLR8 IC50 / hERG IC20/TLR9 IC50: safety ratio
T2 construct: expressed in transfected cells; host or cells: CHO (Chinese hamster ovary), CHOhERG
T2 sequence (Q12809 whole entry): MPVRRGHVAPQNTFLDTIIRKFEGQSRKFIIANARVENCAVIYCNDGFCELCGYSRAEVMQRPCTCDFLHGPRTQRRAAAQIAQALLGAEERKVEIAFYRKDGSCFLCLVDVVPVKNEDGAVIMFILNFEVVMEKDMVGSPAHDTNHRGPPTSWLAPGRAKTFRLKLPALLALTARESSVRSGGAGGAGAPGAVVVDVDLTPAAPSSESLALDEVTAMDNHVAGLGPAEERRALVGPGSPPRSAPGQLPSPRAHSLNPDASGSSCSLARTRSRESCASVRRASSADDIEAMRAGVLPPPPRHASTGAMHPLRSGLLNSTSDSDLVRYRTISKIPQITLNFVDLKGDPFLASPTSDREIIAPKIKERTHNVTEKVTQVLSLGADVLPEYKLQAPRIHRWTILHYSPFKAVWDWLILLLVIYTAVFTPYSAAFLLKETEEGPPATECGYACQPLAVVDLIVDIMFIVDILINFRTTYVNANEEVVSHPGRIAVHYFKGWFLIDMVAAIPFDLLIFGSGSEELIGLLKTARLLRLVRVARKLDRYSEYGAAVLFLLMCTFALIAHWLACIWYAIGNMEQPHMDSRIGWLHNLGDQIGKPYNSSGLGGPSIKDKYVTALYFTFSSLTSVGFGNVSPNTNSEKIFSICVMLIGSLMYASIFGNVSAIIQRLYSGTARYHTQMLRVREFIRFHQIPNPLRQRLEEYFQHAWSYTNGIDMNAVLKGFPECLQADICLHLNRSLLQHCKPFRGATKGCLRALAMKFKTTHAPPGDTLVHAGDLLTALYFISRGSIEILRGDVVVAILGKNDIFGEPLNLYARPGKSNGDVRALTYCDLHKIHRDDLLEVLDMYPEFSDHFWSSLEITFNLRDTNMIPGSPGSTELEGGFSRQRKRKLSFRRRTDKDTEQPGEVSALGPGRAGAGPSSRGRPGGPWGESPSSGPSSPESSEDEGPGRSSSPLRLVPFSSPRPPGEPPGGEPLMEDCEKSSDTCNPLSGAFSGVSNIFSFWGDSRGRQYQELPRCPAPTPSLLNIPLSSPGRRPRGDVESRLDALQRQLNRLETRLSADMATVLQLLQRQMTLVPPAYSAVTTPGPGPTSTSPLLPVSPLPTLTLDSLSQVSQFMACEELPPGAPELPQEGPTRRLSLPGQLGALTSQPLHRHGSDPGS
Method: The hERG K^+ channels were cloned in humans and stably expressed in a CHO (Chinese hamster ovary) cell line. CHOhERG cells were used for patch-clamp (voltage-clamp, whole-cell) experiments. Cells were stimulated by a voltage pattern to activate hERG channels and conduct IKhERG currents (rapid delayed outward rectifier potassium current of the hERG channel). After the cells were stabilized for a few minutes, the amplitude and kinetics of IKhERG were recorded at a stimulation frequency of 0.1 Hz, (6 bpm). Thereafter, the test compound was added to the preparation at increasing concentrations. For each concentration, an attempt was made to reach a steady-state effect, usually, this was achieved within 3-10 min at which time the next highest concentration was applied. The amplitude and kinetics of IKhERG are recorded in each concentration of the drug which were compared to the control values (taken as 100%). (references: Redfern W S, Carlsson L, Davis A S, Lynch W G, MacKenzie I, Palethorpe S, Siegl P K, Strang I, Sullivan A T, Wallis R, Camm A J, Hammond T G. 2003; Relationships between preclinical cardiac electrophysiology, clinical QT interval prolongation and torsade de pointes for a broad range of drugs: evidence for a provisional safety margin in drug development. Cardiovasc. Res. 58:32-45, Sanguinetti MC, Tristani-Firouzi M. 2006; hERG potassium channels and cardiac arrhythmia. Nature 440:463-469, Webster R, Leishman D, Walker D. 2002; Towards a drug concentration effect relationship for QT prolongation and torsades de pointes. Curr. Opin. Drug Discov. Devel. 5:116-26).

T1 sequence (P11712 whole entry): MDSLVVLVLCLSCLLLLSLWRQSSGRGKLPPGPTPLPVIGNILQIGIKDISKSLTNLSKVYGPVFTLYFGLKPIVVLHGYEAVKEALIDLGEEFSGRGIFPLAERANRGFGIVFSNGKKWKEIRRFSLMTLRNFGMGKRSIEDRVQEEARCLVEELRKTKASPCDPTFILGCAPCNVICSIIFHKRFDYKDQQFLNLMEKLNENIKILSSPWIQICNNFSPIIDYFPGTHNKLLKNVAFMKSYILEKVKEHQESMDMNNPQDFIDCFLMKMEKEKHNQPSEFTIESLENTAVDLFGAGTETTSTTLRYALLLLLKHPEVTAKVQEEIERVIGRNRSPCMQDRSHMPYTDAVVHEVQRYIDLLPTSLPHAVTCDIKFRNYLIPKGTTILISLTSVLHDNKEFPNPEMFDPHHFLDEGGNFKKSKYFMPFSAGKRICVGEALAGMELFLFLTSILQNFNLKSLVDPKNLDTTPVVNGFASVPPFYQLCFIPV

Structure (SMILES)	CYP (%) 2C9 (CYP2C9) [%]	IC50 (hERG K+ channel) [µM]	IC20 (hERG K+ channel) [µM]	hERG IC20/TLR7 IC50 (hERG K+ channel)	hERG IC20/TLR8 IC50 (hERG K+ channel)	hERG IC20/TLR9 IC50 (hERG K+ channel)
C[C@@H]1CN(c2ccc(C#N)c3ncccc23)C[C@@H]2C[C@H](c3ccc(N4CCNCC4)nc3)CCN21 (stereo in doubt) [Example 2, 5-[(4R,8R)-4-methyl-8-(6-piperazin-1-yl-3-pyridyl)-1,3,4,6,7,8,9,9a-octahydropyrido[1,2-a]pyrazin-2-yl]quinoline-8-carbonitrile]	6					
CO[C@H]1CN(c2ccc([C@@H]3CCN4[C@@H](C3)CN(c3ccc(C#N)c5ncccc35)C[C@H]4C)cn2)C[C@@H]1N [Example 6, 5-[(4R,8R,9aS)-8-[6-[(3S,4S)-3-amino-4-methoxy-pyrrolidin-1-yl]-3-pyridyl]-4-methyl-1,3,4,6,7,8,9,9a-octahydropyrido[1,2-a]pyrazin-2-yl]quinoline-8-carbonitrile]	−8	> 20	9.2	224.4	195.7	105.7
C[C@@H]1CN(c2ccc(C#N)c3ncccc23)C[C@@H]2C[C@H](N3CC(c4ccc(N5CCNCC5)cc4)C3)CCN21 [Example 9, 5-[(4R,8R,9aS)-4-methyl-8-[3-(4-piperazin-1-ylphenyl)azetidin-1-yl]-1,3,4,6,7,8,9,9a-octahydropyrido[1,2-a]pyrazin-2-yl]quinoline-8-carbonitrile]	−6.5	> 20	> 10	>370.4	>277.8	>312.5
C[C@@H]1CN(c2ccc(C#N)c3ncccc23)C[C@@H]2C[C@@H](Oc3ccc(N4CCNCC4)cn3)CCN21 [Example 11, 5-[(4R,8S,9aS)-4-methyl-8-[(5-piperazin-1-yl-2-pyridyl)oxy]-1,3,4,6,7,8,9,9a-octahydropyrido[1,2-a]pyrazin-2-yl]quinoline-8-carbonitrile]	0	> 20	> 10	>217.4	>666.6	>111.1
CO[C@H]1CN(c2ccc([C@@H]3CCN4[C@@H](C3)CN(c3ccc(C#N)c5ncccc35)C[C@H]4C)cn2)C[C@H]1N [Example 12, 5-[(4R,8R,9aS)-8-[6-[(3R,4S)-3-amino-4-methoxy-pyrrolidin-1-yl]-3-pyridyl]-4-methyl-1,3,4,6,7,8,9,9a-octahydropyrido[1,2-a]pyrazin-2-yl]quinoline-8-carbonitrile]	14.5					
CO[C@@H]1CN(c2ccc([C@@H]3CCN4[C@@H](C3)CN(c3ccc(C#N)c5ncccc35)C[C@H]4C)cn2)C[C@H]1N [Example 14, 5-[(4R,8R,9aS)-8-[6-[(3R,4R)-3-amino-4-methoxy-pyrrolidin-1-yl]-3-pyridyl]-4-methyl-1,3,4,6,7,8,9,9a-octahydropyrido[1,2-a]pyrazin-2-yl]quinoline-8-carbonitrile]	−1					
C[C@@H]1CN(c2ccc(C#N)c3ncccc23)C[C@@H]2C[C@H](c3ccc(N4C[C@@H](N)[C@@H](F)C4)nc3)CCN21 [Example 19, 5-[(4R,8R,9aS)-8-[6-[(3R,4S)-3-amino-4-fluoro-pyrrolidin-1-yl]-3-pyridyl]-4-methyl-1,3,4,6,7,8,9,9a-octahydropyrido[1,2-a]pyrazin-2-yl]quinoline-8-carbonitrile]	−3.5					
C[C@@H]1CN(c2ccc(C#N)c3ncccc23)C[C@@H]2C[C@H](Nc3ccc([C@H]4CNCCO4)cc3)CCN21 [Example 20, 5-[(4R,8R,9aS)-4-methyl-8-[4-[(2S)-morpholin-2-yl]anilino]-1,3,4,6,7,8,9,9a-octahydropyrido[1,2-a]pyrazin-2-yl]quinoline-8-carbonitrile]		> 20	> 10	>769.2	>200	>200
C[C@@H]1CN(c2ccc(C#N)c3ncccc23)C[C@@H]2C[C@H](Nc3ccc(C[C@@H]4CNCCO4)cc3)CCN21 [Example 21, 5-[(4R,8R,9aS)-4-methyl-8-[4-[[(2R)-morpholin-2-yl]methyl]anilino]-1,3,4,6,7,8,9,9a-octahydropyrido[1,2-a]pyrazin-2-yl]quinoline-8-carbonitrile]	3	> 20	> 10	>500	>185.2	>116.3
C[C@@H]1CN(c2ccc(C#N)c3ncccc23)C[C@@H]2C[C@H](c3ccc([C@@H]4CNCCO4)cc3)CCN21 [Example 27, 5-[(4R,8R,9aS)-4-methyl-8-[4-[(2R)-morpholin-2-yl]phenyl]-1,3,4,6,7,8,9,9a-octahydropyrido[1,2-a]pyrazin-2-yl]quinoline-8-carbonitrile]	4					
[2H]c1ccc2c(N3C[C@@H]4C[C@H](Nc5ccc(C[C@H]6CNCCO6)cc5)CCN4[C@H](C)C3)ccc(C#N)c2n1 [Example 34, 5-[(4R,8R,9aS)-4-methyl-8-[4-[[(2S)-morpholin-2-yl]methyl]anilino]-1,3,4,6,7,8,9,9a-octahydropyrido[1,2-a]pyrazin-2-yl]-2-deuterio-quinoline-8-carbonitrile]	−20	> 20	> 10	>212.7	>250	>175.4
[2H]c1ccc2c(N3C[C@@H]4C[C@H](N5CCN(c6ccncc6)CC5)CCN4[C@H](C)C3)ccc(C#N)c2n1 [Example 37, 5-[(4R,8R,9aS)-4-methyl-8-[4-(4-pyridyl)piperazin-1-yl]-1,3,4,6,7,8,9,9a-octahydropyrido[1,2-a]pyrazin-2-yl]-2-deuterio-quinoline-8-carbonitrile]	4.5					
